What all share (experiment): SILAC LC-MS ATP acyl phosphate probe competition, native kinases in HEK293T
Common to all, as to assay type: binding

Experiment [1] addresses T1, BRAF (B-Raf proto-oncogene serine/threonine-protein kinase) (Homo sapiens, UniProt P15056).
T1 construct: measured against >50 native kinases quantified in HEK293T soluble proteomes; endogenous in cells; host or cells: HEK293T soluble proteome
The conditions noted are these: site Lys2; ATP 1 mM; Ketanserin, Ritanserin 100 μM; RF001 1 mM. The method in brief:
(§1)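 Light and heavy SILAC HEK293T proteomes (2 mg/ml in kinase buffer) were pre-treated with DMSO or compound (50× stock in DMSO) for 30 min at 25° C, then mixed 1:1, reduced, alkylated and digested with trypsin/Lys-C. Desthiobiotin-labelled peptides were avidin-enriched and analysed by LC-MS/MS on an Orbitrap, top-10 data-dependent acquisition.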

For experiment [2], the target named is T2, M3K4 (Mitogen-activated protein kinase kinase kinase 4) (Homo sapiens, UniProt Q9Y6R4).
T2 construct: Native kinases; endogenous in cells; host or cells: HEK293T soluble proteome
The conditions noted are these: site Lys2; ATP 1 mM; Ketanserin, Ritanserin 100 μM; RF001 1 mM. Put shortly: as §1

Experiment [3] addresses T3, MP2K6 (Dual specificity mitogen-activated protein kinase kinase 6) (Homo sapiens, UniProt P52564).
T3 construct: Native kinases; endogenous in cells; host or cells: HEK293T soluble proteome
T3 sequence (P52564 1-334): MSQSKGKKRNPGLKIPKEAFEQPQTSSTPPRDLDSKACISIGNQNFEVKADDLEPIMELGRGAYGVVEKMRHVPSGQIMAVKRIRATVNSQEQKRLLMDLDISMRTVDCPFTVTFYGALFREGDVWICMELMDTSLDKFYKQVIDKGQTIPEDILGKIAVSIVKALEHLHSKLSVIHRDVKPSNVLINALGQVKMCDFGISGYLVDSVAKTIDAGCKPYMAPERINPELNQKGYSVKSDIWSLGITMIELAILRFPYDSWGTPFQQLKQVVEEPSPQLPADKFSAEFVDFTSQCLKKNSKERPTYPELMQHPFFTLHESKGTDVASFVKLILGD
Particulars: site Lys1; ATP 1 mM; Ketanserin, Ritanserin 100 μM; RF001 1 mM. Put shortly:
as §1

The target in experiment [4] is T4, STK38 (Serine/threonine-protein kinase 38) (Homo sapiens, UniProt Q15208).
T4 construct: Native kinases; endogenous in cells; host or cells: HEK293T soluble proteome
The conditions noted are these: site Lys1; ATP 1 mM; Ketanserin, Ritanserin 100 μM; RF001 1 mM. Put shortly:
as §1

For experiment [5], the target named is T5, ULK3 (Unc-51-like kinase 3) (Homo sapiens, UniProt Q6PHR2).
T5 construct: Native kinases; endogenous in cells; host or cells: HEK293T soluble proteome
T5 sequence (Q6PHR2 1-472): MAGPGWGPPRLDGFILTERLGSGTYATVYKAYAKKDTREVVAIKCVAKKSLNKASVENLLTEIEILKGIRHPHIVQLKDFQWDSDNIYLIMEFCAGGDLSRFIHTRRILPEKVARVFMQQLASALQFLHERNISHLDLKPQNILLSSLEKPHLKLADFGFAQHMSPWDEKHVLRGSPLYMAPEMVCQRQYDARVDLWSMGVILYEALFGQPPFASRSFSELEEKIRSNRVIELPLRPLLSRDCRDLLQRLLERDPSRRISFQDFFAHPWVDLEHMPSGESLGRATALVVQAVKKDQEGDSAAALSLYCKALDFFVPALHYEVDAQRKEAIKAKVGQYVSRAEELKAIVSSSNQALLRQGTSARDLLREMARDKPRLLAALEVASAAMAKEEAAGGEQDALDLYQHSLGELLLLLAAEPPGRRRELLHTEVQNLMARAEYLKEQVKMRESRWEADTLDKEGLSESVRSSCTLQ
Particulars: site Lys1; ATP 1 mM; Ketanserin, Ritanserin 100 μM; RF001 1 mM. The method in brief:
as §1

The values that follow come from patent US12643867B2, “Compositions and uses thereof” (University of Virginia Patent Foundation, priority 2017, dated 2026).

T4 sequence (Q15208 whole entry): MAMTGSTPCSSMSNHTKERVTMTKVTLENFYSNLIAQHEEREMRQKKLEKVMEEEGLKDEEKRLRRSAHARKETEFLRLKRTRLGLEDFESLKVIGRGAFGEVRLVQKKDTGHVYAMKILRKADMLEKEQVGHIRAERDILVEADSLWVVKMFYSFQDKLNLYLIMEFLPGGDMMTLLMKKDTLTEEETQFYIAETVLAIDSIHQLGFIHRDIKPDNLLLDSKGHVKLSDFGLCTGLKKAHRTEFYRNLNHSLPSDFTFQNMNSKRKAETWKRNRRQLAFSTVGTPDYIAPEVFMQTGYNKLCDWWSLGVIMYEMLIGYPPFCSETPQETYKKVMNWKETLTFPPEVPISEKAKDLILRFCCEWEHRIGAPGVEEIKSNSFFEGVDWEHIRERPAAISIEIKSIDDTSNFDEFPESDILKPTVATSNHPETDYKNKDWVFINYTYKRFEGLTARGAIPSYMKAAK
T1 sequence (P15056 whole entry): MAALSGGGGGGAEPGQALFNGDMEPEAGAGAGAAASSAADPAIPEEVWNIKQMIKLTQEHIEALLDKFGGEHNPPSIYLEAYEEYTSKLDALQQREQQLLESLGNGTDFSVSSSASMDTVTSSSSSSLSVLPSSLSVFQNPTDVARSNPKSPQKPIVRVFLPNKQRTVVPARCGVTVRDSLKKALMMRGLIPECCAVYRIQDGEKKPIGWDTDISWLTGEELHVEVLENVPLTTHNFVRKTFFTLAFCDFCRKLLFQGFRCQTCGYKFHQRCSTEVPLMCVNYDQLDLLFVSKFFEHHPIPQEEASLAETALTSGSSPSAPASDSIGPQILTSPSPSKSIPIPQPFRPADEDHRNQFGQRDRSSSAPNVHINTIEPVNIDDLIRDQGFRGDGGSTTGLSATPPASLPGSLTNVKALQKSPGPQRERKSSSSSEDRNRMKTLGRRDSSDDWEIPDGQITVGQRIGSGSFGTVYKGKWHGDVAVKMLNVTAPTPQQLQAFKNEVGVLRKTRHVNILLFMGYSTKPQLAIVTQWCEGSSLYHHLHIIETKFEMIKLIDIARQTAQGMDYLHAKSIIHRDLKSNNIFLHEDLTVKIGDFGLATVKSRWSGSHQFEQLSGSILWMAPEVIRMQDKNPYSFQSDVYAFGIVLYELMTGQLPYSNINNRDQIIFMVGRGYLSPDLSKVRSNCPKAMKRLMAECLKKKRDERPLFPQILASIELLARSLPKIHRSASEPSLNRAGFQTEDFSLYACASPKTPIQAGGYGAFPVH
T2 sequence (Q9Y6R4 whole entry): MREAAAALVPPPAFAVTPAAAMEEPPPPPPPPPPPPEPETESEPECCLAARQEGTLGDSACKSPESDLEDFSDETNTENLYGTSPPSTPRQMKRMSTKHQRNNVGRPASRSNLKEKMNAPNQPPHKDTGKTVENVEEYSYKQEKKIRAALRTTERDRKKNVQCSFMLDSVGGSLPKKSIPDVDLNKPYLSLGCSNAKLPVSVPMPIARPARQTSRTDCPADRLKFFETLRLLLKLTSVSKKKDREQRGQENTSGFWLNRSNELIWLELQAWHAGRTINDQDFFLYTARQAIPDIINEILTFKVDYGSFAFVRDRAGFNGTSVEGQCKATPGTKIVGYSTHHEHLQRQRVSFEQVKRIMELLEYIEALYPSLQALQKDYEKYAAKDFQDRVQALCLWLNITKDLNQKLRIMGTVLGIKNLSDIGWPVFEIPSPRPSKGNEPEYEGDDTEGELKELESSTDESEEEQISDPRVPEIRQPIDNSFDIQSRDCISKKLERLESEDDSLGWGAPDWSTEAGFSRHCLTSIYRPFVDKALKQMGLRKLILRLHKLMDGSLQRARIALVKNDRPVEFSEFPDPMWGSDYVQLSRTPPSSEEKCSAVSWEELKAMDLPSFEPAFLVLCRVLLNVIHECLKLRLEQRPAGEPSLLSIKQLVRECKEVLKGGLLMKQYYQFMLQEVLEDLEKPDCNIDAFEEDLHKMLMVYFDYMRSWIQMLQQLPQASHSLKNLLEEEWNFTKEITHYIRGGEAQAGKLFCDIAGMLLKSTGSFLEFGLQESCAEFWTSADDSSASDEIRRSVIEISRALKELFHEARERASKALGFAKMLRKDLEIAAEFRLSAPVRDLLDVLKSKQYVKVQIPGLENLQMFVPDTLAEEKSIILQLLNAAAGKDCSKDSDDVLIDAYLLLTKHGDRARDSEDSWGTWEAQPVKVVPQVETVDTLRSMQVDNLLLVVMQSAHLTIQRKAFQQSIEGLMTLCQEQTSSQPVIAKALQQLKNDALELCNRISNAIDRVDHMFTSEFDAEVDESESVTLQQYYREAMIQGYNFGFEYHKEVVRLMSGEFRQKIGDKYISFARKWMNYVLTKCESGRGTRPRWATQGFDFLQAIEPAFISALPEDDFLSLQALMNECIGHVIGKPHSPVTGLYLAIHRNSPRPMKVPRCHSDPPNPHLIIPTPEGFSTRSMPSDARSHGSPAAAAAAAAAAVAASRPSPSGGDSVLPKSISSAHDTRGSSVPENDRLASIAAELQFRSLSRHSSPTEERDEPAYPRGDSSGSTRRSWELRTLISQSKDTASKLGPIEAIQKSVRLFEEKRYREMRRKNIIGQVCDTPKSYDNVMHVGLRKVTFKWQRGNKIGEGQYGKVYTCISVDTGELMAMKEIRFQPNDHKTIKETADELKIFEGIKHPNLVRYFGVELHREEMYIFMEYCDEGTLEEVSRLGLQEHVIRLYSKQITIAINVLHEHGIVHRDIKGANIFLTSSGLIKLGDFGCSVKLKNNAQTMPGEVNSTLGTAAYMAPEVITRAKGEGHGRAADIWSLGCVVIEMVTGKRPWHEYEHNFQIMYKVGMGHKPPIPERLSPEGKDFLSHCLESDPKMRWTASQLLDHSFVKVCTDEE

In the case of `O=C(c1ccc(F)cc1)C1CCN(CCn2c(=O)[nH]c3ccccc3c2=O)CC1` [Ketanserin], in experiment [1], the “SILAC ratio, BRAF probe-modified peptide” value amounted to 1.6. For the same compound, the “SILAC ratio, M3K4 probe-modified peptide” value in experiment [2] is reported as 1.2. In addition, in experiment [3], the “SILAC ratio, MP2K6 probe-modified peptide” value turned out to be 1.4. In addition, in experiment [4], the “SILAC ratio, STK38 probe-modified peptide” value is reported as 1.3. Also, the “SILAC ratio, ULK3 probe-modified peptide” value in experiment [5] came to 2.3.
For `Fc1ccc(C(=C2CCNCC2)c2ccc(F)cc2)cc1` [RF001, 4-(Bis(4-fluorophenyl)methylene) piperidine] the same measures were 1.1, 0.8, 1.1, 1.4 and 1.4.
For `Cc1nc2sccn2c(=O)c1CCN1CCC(=C(c2ccc(F)cc2)c2ccc(F)cc2)CC1` [Ritanserin], the “SILAC ratio, BRAF probe-modified peptide” value in experiment [1] stood at 1.8. For the same compound, the “SILAC ratio, M3K4 probe-modified peptide” value in experiment [2] worked out at 1.9. Also, the “SILAC ratio, MP2K6 probe-modified peptide” value in experiment [3] is 2.2. Besides, the “SILAC ratio, STK38 probe-modified peptide” value in experiment [4] came to 2.0. For the same compound, the “SILAC ratio, ULK3 probe-modified peptide” value in experiment [5] stood at 1.8.
